IC50 and Activity data for six compounds are collected here from ChEMBL document CHEMBL1158296, “(Hydroxymethyl)acylfulvene: an illudin derivative with superior antitumor properties” (J Nat Prod, 1996).

Active and inactive are the calls of the source. No cut-off for these calls is given here.

In one test the test system is HL-60. Nature of the test: Cytotoxicity against human HL60 cells after 48 hrs by trypan blue exclusion method. The test is classed as functional, cell-based.
Test [1] can be described thus: Antitumor activity against human MV522 cells xenografted BALB/c nu/nu mouse assessed as increase in life span at 10 mg/kg, iv administered three times per week for 3 weeks. The test is classed as functional.
The next test concerns MV522. Nature of the test: Antitumor activity against human MV522 cells xenografted BALB/c nu/nu mouse assessed as induction of tumor regression at 10 mg/kg, iv administered three times per week for 3 weeks. The test is classed as functional, organism-based. The arrangement: dose 10 mg/kg.
[2] abbreviates: Homo sapiens, HL-60, 48 h, read-out: IC50.

In the case of `COc1ccc(CC2=C(C)C=C3C(=O)[C@](C)(O)C4(CC4)C(C)=C32)cc1`, the IC50 with HL-60 (setting [2]) was 1.05 µM.

Regarding `CC1=C(CO)C2=C(C)C3(CC3)[C@@](C)(O)C(=O)C2=C1` [IROFULVEN], the Activity in test [1] amounted to 150%. In addition, the result in the test on MV522 was Active. Also, in the test on HL-60 (setting [2]), the IC50 is 0.073 µM.

Turning to `CC1=C2C(=O)C(C)(C)C=C2C(=O)[C@](C)(O)C12CC2` [DEHYDROILLUDIN M], the IC50 in the test on HL-60 (setting [2]) came out at 0.296 µM.

For the compound `CC1=CC2=C(C)C3(CC3)[C@@](C)(O)C(=O)C2=C1` [ACYLFULVENE], the IC50 in the test with HL-60 (setting [2]) is 0.415 µM.

As for `CC1=C(CSc2ccc(C)cc2)C2=C(C)C3(CC3)[C@@](C)(O)C(=O)C2=C1`, the half-inhibitory concentration (IC50) result in the test with HL-60 (hl-60) is reported as “ND(Insoluble)”.

For `CC1=C(Cc2ccc(O)cc2)C2=C(C)C3(CC3)[C@@](C)(O)C(=O)C2=C1`, in the test on HL-60 (setting [2]), the concentration for half-maximal inhibition (IC50) came out at 0.38 µM.
